Results as given in patent US20120283295A1, “INDAZOLE DERIVATIVES AND THEIR USE FOR BLOCKADING VOLTAGE DEPENDENT SODIUM CHANNELS” (University College London, priority 2009, published 2012).
pIC50: −log10 of the molar value. Where two headings read alike, the source gives them in different places.

Assays:
[1] = tested on: voltage dependent sodium channels; experiment: Sodium channel activity, guanidine flux; type: cell-based
Procedure: (§2) Biological assays to determine sodium channel activity, neuroprotection and Nav isoform selectivity were carried out according to the protocols set out in Clutterbuck et al (2009), J. Med. Chem. 52, 2694-2707.

[2] = molecular target: Nav1.8 (Homo sapiens, UniProt Q9Y5Y9); experiment: Nav isoform selectivity, Nav1.8; type: cell-based; design: concentration or dose not given beside the values
Nav1.8, sequence (Q9Y5Y9 whole entry, canonical isoform): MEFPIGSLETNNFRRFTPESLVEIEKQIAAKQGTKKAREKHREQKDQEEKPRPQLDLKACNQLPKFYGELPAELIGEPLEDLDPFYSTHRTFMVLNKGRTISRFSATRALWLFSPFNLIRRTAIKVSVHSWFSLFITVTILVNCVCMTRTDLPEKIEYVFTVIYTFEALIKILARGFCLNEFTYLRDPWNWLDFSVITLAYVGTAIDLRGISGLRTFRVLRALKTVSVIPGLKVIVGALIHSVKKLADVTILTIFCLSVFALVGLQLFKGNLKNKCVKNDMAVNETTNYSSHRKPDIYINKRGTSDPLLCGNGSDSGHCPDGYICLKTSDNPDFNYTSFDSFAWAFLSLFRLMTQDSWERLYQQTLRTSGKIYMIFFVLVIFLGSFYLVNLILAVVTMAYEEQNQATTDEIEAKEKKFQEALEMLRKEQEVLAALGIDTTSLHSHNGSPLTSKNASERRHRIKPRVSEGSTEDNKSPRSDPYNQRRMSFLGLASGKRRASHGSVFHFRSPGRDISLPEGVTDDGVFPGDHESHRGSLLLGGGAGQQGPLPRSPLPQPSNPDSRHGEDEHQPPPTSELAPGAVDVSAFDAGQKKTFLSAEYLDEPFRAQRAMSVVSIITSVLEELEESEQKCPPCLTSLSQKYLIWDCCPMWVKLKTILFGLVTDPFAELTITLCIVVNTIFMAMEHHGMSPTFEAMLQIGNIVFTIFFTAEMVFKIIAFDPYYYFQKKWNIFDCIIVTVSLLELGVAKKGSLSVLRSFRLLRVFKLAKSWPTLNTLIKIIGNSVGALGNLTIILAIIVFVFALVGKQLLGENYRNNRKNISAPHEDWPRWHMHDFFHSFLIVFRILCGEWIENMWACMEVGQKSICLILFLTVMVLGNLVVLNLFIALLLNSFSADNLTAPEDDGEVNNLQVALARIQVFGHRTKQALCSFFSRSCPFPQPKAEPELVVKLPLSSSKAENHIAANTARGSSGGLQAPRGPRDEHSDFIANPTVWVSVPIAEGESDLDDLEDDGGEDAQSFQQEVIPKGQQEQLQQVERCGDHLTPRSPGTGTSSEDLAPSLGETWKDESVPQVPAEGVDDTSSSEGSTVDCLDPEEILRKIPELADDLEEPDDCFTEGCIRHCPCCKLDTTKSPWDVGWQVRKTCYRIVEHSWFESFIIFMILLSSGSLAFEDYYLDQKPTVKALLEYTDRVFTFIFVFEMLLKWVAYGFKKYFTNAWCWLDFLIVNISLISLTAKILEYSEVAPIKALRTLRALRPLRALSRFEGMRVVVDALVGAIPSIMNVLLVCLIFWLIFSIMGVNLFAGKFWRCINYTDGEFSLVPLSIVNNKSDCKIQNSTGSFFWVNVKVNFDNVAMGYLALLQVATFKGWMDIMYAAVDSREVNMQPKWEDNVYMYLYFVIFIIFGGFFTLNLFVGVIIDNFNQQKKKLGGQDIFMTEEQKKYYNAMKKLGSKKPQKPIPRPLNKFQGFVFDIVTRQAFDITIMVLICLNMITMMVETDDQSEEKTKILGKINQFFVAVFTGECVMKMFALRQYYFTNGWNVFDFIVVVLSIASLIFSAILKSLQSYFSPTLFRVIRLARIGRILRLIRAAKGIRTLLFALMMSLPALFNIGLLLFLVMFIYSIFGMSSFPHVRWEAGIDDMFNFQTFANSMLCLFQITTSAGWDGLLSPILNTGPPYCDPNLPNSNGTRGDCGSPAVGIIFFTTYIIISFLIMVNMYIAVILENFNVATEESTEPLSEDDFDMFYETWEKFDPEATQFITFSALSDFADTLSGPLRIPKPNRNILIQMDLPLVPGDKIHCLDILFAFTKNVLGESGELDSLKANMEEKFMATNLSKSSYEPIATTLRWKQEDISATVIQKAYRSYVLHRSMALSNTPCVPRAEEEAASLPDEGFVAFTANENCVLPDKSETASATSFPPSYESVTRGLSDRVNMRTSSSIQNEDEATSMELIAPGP

[3] = molecular target: Nav1.4 (Homo sapiens, UniProt P35499); experiment: Nav isoform selectivity, Nav1.4; type: cell-based; design: concentration or dose not given beside the values
[4] = molecular target: T1, Nav1.5 (Homo sapiens, UniProt Q14524); experiment: Nav isoform selectivity, Nav1.5
[5] = molecular target: Nav1.7 (Homo sapiens, UniProt Q15858); experiment: Nav isoform selectivity, Nav1.7; type: cell-based; design: concentration or dose not given beside the values
[6] = molecular target: Nav1.3 (Homo sapiens, UniProt Q9NY46); experiment: Nav isoform selectivity, Nav1.3; type: cell-based; design: concentration or dose not given beside the values
Nav1.3, sequence (Q9NY46 whole entry, canonical isoform): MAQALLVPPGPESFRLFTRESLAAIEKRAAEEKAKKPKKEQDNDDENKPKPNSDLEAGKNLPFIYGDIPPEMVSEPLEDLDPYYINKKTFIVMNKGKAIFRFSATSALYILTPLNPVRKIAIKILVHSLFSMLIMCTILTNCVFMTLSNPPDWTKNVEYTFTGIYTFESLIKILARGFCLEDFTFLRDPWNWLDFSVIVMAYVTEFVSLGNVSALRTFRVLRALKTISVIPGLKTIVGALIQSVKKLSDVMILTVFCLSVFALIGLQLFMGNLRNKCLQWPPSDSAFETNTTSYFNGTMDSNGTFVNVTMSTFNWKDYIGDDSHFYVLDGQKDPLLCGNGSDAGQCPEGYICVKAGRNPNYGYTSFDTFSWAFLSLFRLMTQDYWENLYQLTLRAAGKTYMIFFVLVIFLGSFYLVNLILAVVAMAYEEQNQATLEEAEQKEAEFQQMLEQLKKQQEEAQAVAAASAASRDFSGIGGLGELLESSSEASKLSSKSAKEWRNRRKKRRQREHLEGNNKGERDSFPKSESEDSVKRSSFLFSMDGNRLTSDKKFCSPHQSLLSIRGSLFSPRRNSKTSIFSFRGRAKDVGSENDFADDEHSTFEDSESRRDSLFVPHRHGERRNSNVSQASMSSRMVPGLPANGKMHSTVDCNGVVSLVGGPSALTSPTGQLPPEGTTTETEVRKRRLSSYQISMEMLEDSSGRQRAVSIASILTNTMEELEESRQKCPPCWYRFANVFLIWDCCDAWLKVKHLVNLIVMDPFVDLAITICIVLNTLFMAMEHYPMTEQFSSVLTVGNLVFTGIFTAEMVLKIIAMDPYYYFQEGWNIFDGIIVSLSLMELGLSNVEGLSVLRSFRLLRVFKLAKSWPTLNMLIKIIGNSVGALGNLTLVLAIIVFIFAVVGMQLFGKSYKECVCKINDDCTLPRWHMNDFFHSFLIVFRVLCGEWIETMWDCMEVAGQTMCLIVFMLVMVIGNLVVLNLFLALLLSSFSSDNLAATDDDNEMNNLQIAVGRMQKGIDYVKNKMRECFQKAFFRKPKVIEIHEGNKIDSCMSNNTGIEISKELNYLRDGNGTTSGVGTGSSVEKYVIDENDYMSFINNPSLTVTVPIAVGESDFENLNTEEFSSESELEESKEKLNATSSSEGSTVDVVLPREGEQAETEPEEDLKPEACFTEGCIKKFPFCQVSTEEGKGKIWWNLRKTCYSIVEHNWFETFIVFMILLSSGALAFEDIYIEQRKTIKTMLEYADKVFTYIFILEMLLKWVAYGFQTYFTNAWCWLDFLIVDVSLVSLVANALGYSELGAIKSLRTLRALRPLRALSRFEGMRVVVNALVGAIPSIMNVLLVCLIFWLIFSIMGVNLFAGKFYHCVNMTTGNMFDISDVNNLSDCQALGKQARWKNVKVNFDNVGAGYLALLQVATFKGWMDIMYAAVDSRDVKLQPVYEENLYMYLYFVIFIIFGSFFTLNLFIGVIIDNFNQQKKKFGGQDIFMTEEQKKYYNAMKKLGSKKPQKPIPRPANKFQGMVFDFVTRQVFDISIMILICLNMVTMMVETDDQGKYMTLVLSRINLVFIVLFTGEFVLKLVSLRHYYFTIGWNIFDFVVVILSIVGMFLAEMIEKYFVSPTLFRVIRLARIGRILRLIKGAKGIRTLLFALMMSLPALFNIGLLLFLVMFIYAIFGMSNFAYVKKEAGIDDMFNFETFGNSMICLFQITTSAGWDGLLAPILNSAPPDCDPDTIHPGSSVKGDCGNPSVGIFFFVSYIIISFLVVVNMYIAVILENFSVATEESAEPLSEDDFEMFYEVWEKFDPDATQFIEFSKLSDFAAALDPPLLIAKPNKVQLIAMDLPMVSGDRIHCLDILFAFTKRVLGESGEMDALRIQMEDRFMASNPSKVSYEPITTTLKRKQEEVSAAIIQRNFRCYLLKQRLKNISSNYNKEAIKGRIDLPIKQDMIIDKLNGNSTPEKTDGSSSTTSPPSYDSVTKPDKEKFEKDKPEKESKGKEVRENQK

[7] = molecular target: Nav1.1 (Homo sapiens, UniProt P35498); experiment: Nav isoform selectivity, Nav1.1; type: cell-based
Procedure: as §2

[8] = molecular target: Nav1.6 (Homo sapiens, UniProt Q9UQD0); experiment: Nav isoform selectivity, Nav1.6; type: cell-based; design: concentration or dose not given beside the values
[9] = molecular target: Nav1.2 (Homo sapiens, UniProt Q99250); experiment: Nav isoform selectivity, Nav1.2 (EP); type: cell-based; design: concentration or dose not given beside the values
[10] = tested on: lymph node proliferative responses; experiment: Immunosuppressive activity, contact-hypersensitivity paradigm; type: in vivo; settings: daily i.p. 5, 25 and 50 mg/kg from a day before sensitization; compared to vehicle
Procedure: (§1) The immunosuppressive activity of Example 15 was investigated using a simple contact-hypersensitivity paradigm. […] (Data not shown). Therefore, it was not necessary to dose-titrate Example 15 in order to avoid the immunosuppression-induced neuroprotection that would mask any real neuroprotective action of Example 15. In order to limit animal usage required for a full-dose-response, as proof-of-principle, 10 mg/kg of Example 15 i.p. was selected as an initial dose for study. This dose was within the range used in humans for sodium channel-blocking agents (1-50 mg/kg p.o.), particularly when scaled to mouse (USDHHS, 2005), and was well below the maximum tolerated dose (>50 mg/kg/daily). This was investigated for a neuroprotective potential in an induced-relapse during experimental autoimmune encephalomyelitis (EAE).
T cell proliferation per 5×10^5 lymph node cells or proliferation adjusted for the number of cells in the lymph nodes is shown in FIGS. 2 and 3.

[11] = in vivo
Procedure: as §1

[12] = tested on: induced-relapse EAE in ABH mice; experiment: Induced-relapse experimental autoimmune encephalomyelitis (EAE); type: in vivo
Excerpt: In many rodent models of MS, particularly during EAE the ABH mice, there is limited demyelination and nerve damage during the initial acute-phase of paralysis that occurs 2-3 weeks following sensitization (Baker et al. 1990, Jackson et al. 2005). Nerve damage and demyelination becomes more pronounced with disease duration and the development of relapsing disease (Baker et al. 1990). The neuroprotective potential of Example 15 was therefore examined in an induced-relapse EAE paradigm.
ABH mice were injected with 1 mg mouse spinal cord homogenate in Freunds adjuvant on days 0 and 7 p.i. to induce EAE and this was repeated on 27 p.i. to induce a relapse. Animals were injected daily i.p. with either vehicle or 10 mg/kg Example 15 from day 33 onwards. Animals were monitored for the development of clinical disease and the results represent: (A) The mean maximal clinical score, during the initial acute attack around day 15-20 and the clinical relapse around day 34-40, or the mean minimal clinical score during remission from paralytic attacks. (B) The mean daily clinical score following induction of relapse. (C) The time taken to fall from an accelerating rotorod was monitored pre-treatment on day 25 or on day 48 post-disease induction, when the experiment was terminated. (D) The spinal cords were removed and nerve content was measured using a neurofilament heavy chain (Nfh)-specific ELISA. The results represent the mean±SEM of 8 animals per group. *P<0.05, **P<0.01, ***P<0.001 compared to vehicle-treated animals.

[13] = molecular target: T1, Nav1.5
[14] = 10 mg/kg daily i.p. from day 33, vs vehicle

Row | pIC50 [1] | Nav isoform inhibition (%) Nav1.8 [2] | Nav isoform inhibition (%) Nav1.4 [3] | Nav isoform inhibition (%) Nav1.7 [5] | Nav isoform inhibition (%) Nav1.3 [6] | Nav isoform inhibition (%) Nav1.1 [7] | Nav isoform inhibition (%) Nav1.6 [8] | Nav isoform inhibition (%) Nav1.2 EP [9] | Nav isoform inhibition (%) Nav1.2 EP UD [9] | SMILES | Nav isoform inhibition (%) Nav1.5 [4] | further results
1 | 3.49 | – | – | – | – | – | – | – | – | O=C(NCc1noc(-c2c3ccccc3nn2CCn2ccnc2)n1)c1ccccc1 [Example 5, N-((5-(2-(2-(1H-imidazol-1-yl)ethyl)-2H-indazol-3-yl)-1,2,4-oxadiazol-3-yl)methyl)benzamide] | – | –
2 | 4.47 | 87% | 45% | 96% | 54% | 56% | 73% | 24.4% | 24.1% | COc1cccc(C(=O)NCc2noc(-c3c4ccccc4nn3CCn3ccnc3)n2)c1OC [Example 6, N-((5-(2-(2-(1H-imidazol-1-yl)ethyl)-2H-indazol-3-yl)-1,2,4-oxadiazol-3-yl)methyl)-2,3-dimethoxybenzamide] | 99% | –
3 | 5.40 | – | – | – | – | – | – | – | – | COc1cccc(C(=O)NCc2noc(-c3c4ccccc4nn3CCn3ccnc3)n2)c1OC [Example 7, N-((5-(2-(2-(1H-imidazol-1-yl)ethyl)-2H-indazol-3-yl)-1,2,4-oxadiazol-3-yl)methyl)-2,3-dimethoxybenzamide] | – | –
4 | 4.66 | – | – | – | – | – | – | – | – | O=C(NCc1noc(-c2c3ccccc3nn2CCn2ccnc2)n1)c1ccc(Cl)cc1 [Example 9, N-((5-(2-(2-(1H-imidazol-1-yl)ethyl)-2H-indazol-3-yl)-1,2,4-oxadiazol-3-yl)methyl)-4-chlorobenzamide] | – | –
5 | 4.49 | 94% | 98% | 46% | 41% | 96% | 79% | 98.5% | not detected | O=C(NCc1noc(-c2c3ccccc3nn2CCn2ccnc2)n1)c1cccc(OC(F)(F)F)c1 [Example 14, N-((5-(2-(2-(1H-imidazol-1-yl)ethyl)-2H-indazol-3-yl)-1,2,4-oxadiazol-3-yl)methyl)-3-(trifluoromethoxy)benzamide] | 95% | –
6 | – | 62% | 33% | 94% | 14% | 26% | 77% | 0.1% | 6.4% | COc1cccc(C(=O)NCc2noc(-c3nn(CCn4ccnc4)c4ccccc34)n2)c1OC [Example 30, N-((5-(1-(2-(1H-imidazol-1-yl)ethyl)-1H-indazol-3-yl)-1,2,4-oxadiazol-3-yl)methyl)-2,3-dimethoxybenzamide] | 71% | –

Further lines, the molecule ahead of its results:

Row | SMILES | pIC50 [1] | Nav isoform inhibition (%) Nav1.8 [2] | Nav isoform inhibition (%) Nav1.4 [3] | Nav isoform inhibition (%) Nav1.7 [5] | Nav isoform inhibition (%) Nav1.3 [6] | Nav isoform inhibition (%) Nav1.1 [7] | Nav isoform inhibition (%) Nav1.6 [8] | Nav isoform inhibition (%) Nav1.2 EP [9] | Nav isoform inhibition (%) Nav1.2 EP UD [9] | Nav isoform inhibition (%) Nav1.5 [4] | further results
7 | CC(C)(C)OC(=O)NCc1noc(-c2nn(CCn3ccnc3)c3ccccc23)n1 [Example 1, tert-butyl (5-(1-(2-(1H-imidazol-1-yl)ethyl)-1H-indazol-3-yl)-1,2,4-oxadiazol-3-yl)methylcarbamate] | 3.99 | – | – | – | – | – | – | – | – | – | –
8 | CC(C)(C)OC(=O)NCc1noc(-c2c3ccccc3nn2CCn2ccnc2)n1 [Example 2, tert-butyl (5-(2-(2-(1H-imidazol-1-yl)ethyl)-2H-indazol-3-yl)-1,2,4-oxadiazol-3-yl)methylcarbamate] | 4.96 | – | – | – | – | – | – | – | – | – | –
9 | O=C(NCc1noc(-c2c3ccccc3nn2CCn2ccnc2)n1)c1cccc(F)c1F [Example 10, N-((5-(2-(2-(1H-imidazol-1-yl)ethyl)-2H-indazol-3-yl)-1,2,4-oxadiazol-3-yl)methyl)-2,3-difluorobenzamide] | – | 84% | 77% | 81% | 51% | 54% | 76% | – | – | 84% | –
10 | O=C(NCc1noc(-c2c3ccccc3nn2CCn2ccnc2)n1)c1ccc2ccccc2c1 [Example 11, N-((5-(2-(2-(1H-imidazol-1-yl)ethyl)-2H-indazol-3-yl)-1,2,4-oxadiazol-3-yl)methyl)-2-naphthamide] | – | 91% | 97% | 33% | 63% | 83% | 86% | – | – | 98% | –
11 | O=C(NCc1noc(-c2nn(CCn3ccnc3)c3ccccc23)n1)c1ccccc1 [Example 15, N-((5-(1-(2-(1H-imidazol-1-yl)ethyl)-1H-indazol-3-yl)-1,2,4-oxadiazol-3-yl)methyl)benzamide] | – | – | – | – | – | – | – | – | – | – | Inhibition of lymph node proliferative responses [10]: failed to inhibit; Maximum tolerated dose [11]: > 50 mg/kg/daily; Loss of motor-function as a consequence of relapse, rotarod ([12]; 10 mg/kg daily i.p. from day 33, day 48, vs vehicle): significantly (P<0.001) reduced; Incidence, onset or maximum severity of relapsing EAE [12, 14]: did not significantly (P>0.05) inhibit; Nerve loss in spinal cord, neurofilament heavy chain ELISA [12, 14]: reduce nerve loss; Recovery of motor-function during remission (clinical score) [12, 14]: significantly (P<0.01) greater degree of recovery
12 | COc1ccc(C(=O)NCc2noc(-c3nn(CCn4ccnc4)c4ccccc34)n2)c(OC)c1OC [Example 16, N-((5-(1-(2-(1H-imidazol-1-yl)ethyl)-1H-indazol-3-yl)-1,2,4-oxadiazol-3-yl)methyl)-2,3,4-trimethoxybenzamide] | – | 48% | 43% | 96% | 39% | 24% | 63% | 1.1% | 1.5% | – | Nav isoform inhibition (%) Nav1.5 [13]: 64%
